Assay [1] concerns CDK8 (phosphorylation of STAT1 at serine 727 in A549 cells). In words: Cell based Phospho-STAT1 assay (IFNγ-stimulated A549 cells, AlphaLISA). As to conditions: Homo sapiens, A549, A549 cells, phospho-STAT1 after IFNγ stimulation. In a few lines: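 A549 cells given serial compound dilutions for 1 h at 37 °C, then stimulated with IFNγ at 10 ng/mL final for 30 min. Lysate STAT1 Ser727 phosphorylation measured by AlphaLISA; % inhibition vs stimulated/unstimulated DMSO controls, IC50 by nonlinear regression.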

The subject of assay [2] is CDK8 (TCF/LEF luciferase reporter in HCT116 cells). Kind of assay: Cell based TCF/LEF reporter assay (HCT116+TCF/LEF luciferase). As to conditions: Homo sapiens, HCT-116, 24 h. The source says: Determine Inhibitor Activity Against CDK8 in Cell Based TCF/LEF Reporter Assay
The colorectal carcinoma cell line HCT116 was stably transduced with lentivirus encoding the TCF/LEF promoter upstream of a luciferase reporter gene (Qiagen) and single cell clones expressing this construct (referred to as HCT116+TCF/LEF) were isolated. HCT116 express endogenous mutant β-catenin^3, resulting in up-regulation of transcription through the TCF/LEF promoter. Expression of the TCF/LEF reporter construct in HCT116 results in constitutive expression of luciferase. Treatment of the cells with inhibitors of components of the β-catenin signaling pathway (such as CDK8) results in decreased expression of luciferase. The assay is performed as follows. The HCT116+TCF/LEF cell line is seeded in a 96 well plate in 50 μL of culture media at 1×10^4 cells/well and incubated at 37° C. overnight. Serial dilutions of compounds (in total volume of 50 μL culture media) are added to the cells and incubated at 37° C. for 24 hours. 4 wells of DMSO treated cells serve as high controls and cells treated with 10 uM of the reference compound CCT251545 (a known CDK8 inhibitor)^4 serve as low controls. The viability of the cells is assayed by the addition of […] reagent (Promega) followed by 30 minute incubation at 37° C. and quantification of the fluorescent signal (Ex400/Em505). The luciferase expression is then assayed by the addition of 25 μL ONE-Glo reagent (Promega) followed by 10 minute incubation at room temperature and quantification of the luminescence signal. The luminescence signal is normalized to the fluorescence signal to correct for any loss in cell viability over the 24 hour compound incubation period. The percentage inhibition at individual concentrations relative to high and low controls is calculated. The data are analyzed by using nonlinear regression to generate IC50 values.
In general terms: A reporter such as luciferase makes a cellular process visible.

What is called IC50 is the point on the concentration scale where inhibition reaches its midpoint. Read a low IC50 as inhibition by little substance. Take `CC(C)(C#Cc1cccn2ncc(-c3ccc(-c4cnn(CC5CC5)c4)cc3)c12)C(N)=O` [Compound P-0463, 4-(3-(4-(1-(cyclopropylmethyl)-1H-pyrazol-4-yl)phenyl)pyrazolo[1,5-a]pyridin-4-yl)-2,2-dimethylbut-3-ynamide]: the IC50 in assay [1] and in assay [2] was 0.0001 to 0.1 µM in each case.

`COC(=O)c1ccc(-c2cnn3cccc(C4=CCC(C#N)CC4)c23)cc1C` (centres unmarked) [Compound P-0123, methyl 4-(4-(4-cyanocyclohex-1-en-1-yl)pyrazolo[1,5-a]pyridin-3-yl)-2-methylbenzoate]: the IC50 in assay [1] and in assay [2] was 0.0001 to 0.1 µM in each case.

Turning to `Cn1cc(-c2ccc(-c3cnn4cccc(C#CC(C)(C)NS(C)(=O)=O)c34)cc2)cn1` [Compound P-0308, N-(2-methyl-4-(3-(4-(1-methyl-1H-pyrazol-4-yl)phenyl)pyrazolo[1,5-a]pyridin-4-yl)but-3-yn-2-yl)methanesulfonamide], the IC50 in assay [1] and in assay [2] was 0.1 to 1 µM each time.

Regarding `Cc1nc2cc(-c3cnn4ccnc(C5=CCC(C#N)CC5)c34)ccc2s1` (centres unmarked) [Compound P-0148, 4-(3-(2-methylbenzo[d]thiazol-5-yl)pyrazolo[1,5-a]pyrazin-4-yl)cyclohex-3-ene-1-carbonitrile], the IC50 in assay [1] was 0.1 to 1 µM; in assay [2] it was 0.0001 to 0.1 µM.

Take `CNC(=O)C(C)(C)C#Cc1cccn2ncc(-c3ccc(-c4cnn(C)c4)cc3)c12` [Compound P-0296, N,2,2-trimethyl-4-(3-(4-(1-methyl-1H-pyrazol-4-yl)phenyl)pyrazolo[1,5-a]pyridin-4-yl)but-3-ynamide]: the IC50 in assay [1] lay within 0.1 to 1 µM; in assay [2], 1 to 10 µM.

As for `N#CC1CC=C(c2nccn3ncc(-c4ccc(F)cc4)c23)CC1` (centres unmarked) [Compound P-0089, 4-(3-(4-fluorophenyl)pyrazolo[1,5-a]pyrazin-4-yl)cyclohex-3-ene-1-carbonitrile], the results for the IC50 in assay [1] and in assay [2] were 0.0001 to 0.1 µM and 0.1 to 1 µM, respectively.

Regarding `CNC(=O)c1ccc2cc(-c3cnn4cccc(C#CC(C)(C)O)c34)ccc2c1` [Compound P-0222, 6-(4-(3-hydroxy-3-methylbut-1-yn-1-yl)pyrazolo[1,5-a]pyridin-3-yl)-N-methyl-2-naphthamide], the IC50 in assay [1] and in assay [2] was 0.0001 to 0.1 µM throughout.

With `CC(C)(O)Cn1cc(-c2ccc(-c3cnc4[nH]ccc4c3N3CCC(C#N)CC3)cc2)cn1` [Compound P-0329, 1-(5-(4-(1-(2-hydroxy-2-methylpropyl)-1H-pyrazol-4-yl)phenyl)-1H-pyrrolo[2,3-b]pyridin-4-yl)piperidine-4-carbonitrile], the IC50 in assay [1] and in assay [2] was 0.0001 to 0.1 µM in each case.

On to `N#CCCn1cc(-c2ccc(-c3cnn4ccnc(C5CCC(C#N)CC5)c34)cc2F)cn1` (centres unmarked) [Compound P-0019, (1s,4s)-4-(3-(4-(1-(2-cyanoethyl)-1H-pyrazol-4-yl)-3-fluorophenyl)pyrazolo[1,5-a]pyrazin-4-yl)cyclohexane-1-carbonitrile], for which the IC50 in assay [1] and in assay [2] was 0.0001 to 0.1 µM each time.

As to `CC(=O)N1CCC(Oc2cccc3ncc(-c4ccc(-c5cnn(C(F)F)c5)cc4)n23)CC1` [Compound P-0304, 1-[4-[3-[4-[1-(difluoromethyl)pyrazol-4-yl]phenyl]imidazo[1,2-a]pyridin-5-yl]oxy-1-piperidyl]ethanone], the IC50 in assay [1] and in assay [2] was 1 to 10 µM each time.

On to `CC(C)(C#Cc1cccn2ncc(-c3ccc(-c4cnn(CC5COC5)c4)cc3)c12)C(N)=O` [Compound P-0470, 2,2-dimethyl-4-(3-(4-(1-(oxetan-3-ylmethyl)-1H-pyrazol-4-yl)phenyl)pyrazolo[1,5-a]pyridin-4-yl)but-3-ynamid], for which the IC50 in assay [1] and in assay [2] was 0.0001 to 0.1 µM in each case.

For the molecule `Cn1cc(-c2ccc(-c3cnn4cccc(C#CC(C)(C)C(=O)O)c34)cc2)cn1` [Compound P-0297, 2,2-dimethyl-4-(3-(4-(1-methyl-1H-pyrazol-4-yl)phenyl)pyrazolo[1,5-a]pyridin-4-yl)but-3-ynoic acid], the IC50 in assay [1] was 0.1 to 1 µM; in assay [2], 0.0001 to 0.1 µM.

As for `Cc1ccc2cc(-c3cnn4cccc(C5=CCC(C#N)CC5)c34)ccc2n1` (centres unmarked) [Compound P-0223, 4-(3-(2-methylquinolin-6-yl)pyrazolo[1,5-a]pyridin-4-yl)cyclohex-3-ene-1-carbonitrile], the IC50 in assay [1] and in assay [2] was 0.0001 to 0.1 µM in each case.

For `CC(=O)C1CCN(c2cccc3ncc(C#Cc4cnn(C)c4)n23)CC1` [Compound P-0240, 1-(1-(3-((1-methyl-1H-pyrazol-4-yl)ethynyl)imidazo[1,2-a]pyridin-5-yl)piperidin-4-yl)ethan-1-one], the IC50 in assay [1] and in assay [2] was 1 to 10 µM in each case.

Regarding `COc1ccc2cc(-c3cnn4cccc(N5CCC6(CCNC6=O)CC5)c34)ccc2n1` [Compound P-0167, 8-(3-(2-methoxyquinolin-6-yl)pyrazolo[1,5-a]pyridin-4-yl)-2,8-diazaspiro[4.5]decan-1-one], the IC50 in assay [1] and in assay [2] was 0.0001 to 0.1 µM in each case.

As for `N#CCCCn1cc(-c2ccc(-c3cnn4ccnc(C5CCC(C#N)CC5)c34)cc2)cn1` (centres unmarked) [Compound P-0002, (1s,4s)-4-(3-(4-(1-(3-cyanopropyl)-1H-pyrazol-4-yl)phenyl)pyrazolo[1,5-a]pyrazin-4-yl)cyclohexane-1-carbonitrile], the IC50 in assay [1] and in assay [2] was 0.0001 to 0.1 µM in each case.

For `Cc1ncc(-c2cnn3ccnc(C4=CCC(C#N)CC4)c23)s1` (centres unmarked) [Compound P-0077, 4-(3-(2-methylthiazol-5-yl)pyrazolo[1,5-a]pyrazin-4-yl)cyclohex-3-ene-1-carbonitrile], the IC50 in assay [1] and in assay [2] was 0.1 to 1 µM each time.

On to `N#CC1CC=C(c2cccn3ncc(-c4ccc(CN5CCOCC5)c(F)c4)c23)CC1` (centres unmarked) [Compound P-0120, 4-(3-(3-fluoro-4-(morpholinomethyl)phenyl)pyrazolo[1,5-a]pyridin-4-yl)cyclohex-3-ene-1-carbonitrile], for which the figures for the IC50 in assay [1] and in assay [2] were 0.0001 to 0.1 µM and 0.1 to 1 µM, respectively.

Consider `N#CC1CC=C(c2cccn3ncc(-c4ccc(OCC(O)CN5CCCCC5)cc4)c23)CC1` (centres unmarked) [Compound P-0128, 4-(3-(4-(2-hydroxy-3-(piperidin-1-yl)propoxy)phenyl)pyrazolo[1,5-a]pyridin-4-yl)cyclohex-3-ene-1-carbonitrile], for which the IC50 in assay [1] and in assay [2] was 0.0001 to 0.1 µM throughout.

With `N#CC1CCN(c2cccn3ncc(-c4ccc(C(=O)N5CCOCC5)cc4)c23)CC1` [Compound P-0258, 1-(3-(4-(morpholine-4-carbonyl)phenyl)pyrazolo[1,5-a]pyridin-4-yl)piperidine-4-carbonitrile], the IC50 in assay [1] and in assay [2] was 0.1 to 1 µM in each case.

`N#CCCn1cc(-c2ccc(-c3cnn4ccnc(C5=CCC(C#N)CC5)c34)cc2F)cn1` (centres unmarked) [Compound P-0030, 4-(3-(4-(1-(2-cyanoethyl)-1H-pyrazol-4-yl)-3-fluorophenyl)pyrazolo[1,5-a]pyrazin-4-yl)cyclohex-3-ene-1-carbonitrile]: the IC50 in assay [1] and in assay [2] was 0.0001 to 0.1 µM each time.

Consider `N#CC1CC=C(c2c(-c3ccc4c(c3)CNC4=O)cnc3[nH]ccc23)CC1` (centres unmarked) [Compound P-0244, 4-(5-(1-oxoisoindolin-5-yl)-1H-pyrrolo[2,3-b]pyridin-4-yl)cyclohex-3-ene-1-carbonitrile], for which the IC50 in assay [1] and in assay [2] was 0.1 to 1 µM throughout.

`CC(C)(O)Cn1cc(-c2ccc(-c3cnc4[nH]ccc4c3C3=CCC(C(N)=O)CC3)cc2F)cn1` (centres unmarked) [Compound P-0134, 4-(5-(3-fluoro-4-(1-(2-hydroxy-2-methylpropyl)-1H-pyrazol-4-yl)phenyl)-1H-pyrrolo[2,3-b]pyridin-4-yl)cyclohex-3-ene-1-carboxamide]: the IC50 in assay [1] fell in the range of 0.1 to 1 µM; in assay [2], 0.0001 to 0.1 µM.

Regarding `N#CC1CCN(c2cccn3ncc(-c4ccc(OC5CCCCC5)cc4)c23)CC1` [Compound P-0265, 1-(3-(4-(cyclo-hexyloxy)phenyl)pyrazolo[1,5-a]pyridin-4-yl)piperidine-4-carbonitrile], the IC50 in assay [1] and in assay [2] was 1 to 10 µM in each case.

`NC(=O)C1CCC(c2cccn3ncc(-c4ccc(-c5cnn(C(F)F)c5)cc4)c23)CC1` (centres unmarked) [Compound P-0316, 4-(3-(4-(1-(difluoromethyl)-1H-pyrazol-4-yl)phenyl)pyrazolo[1,5-a]pyridin-4-yl)cyclohexane-1-carboxamide]: the IC50 in assay [1] and in assay [2] was 0.0001 to 0.1 µM in each case.

The values above are taken from US10703757B2, “Compounds and methods for CDK8 modulation and indications therefor” (Plexxikon Inc., priority 2016, dated 2020).
